For five molecules, MIC and Activity results are on record in ChEMBL document CHEMBL4813942, “Hydrated Rubrolides from the New Zealand Tunicate Synoicum kuranui” (2021).

In brackets after ≈: the same amount, converted by molar mass. Activity calls are given as the source filed them.

Assay [1] has as its system Bacillus subtilis. Briefly: Antibacterial activity against Bacillus subtilis 168 assessed as bacterial growth inhibition measured after 16 hrs by serial dilution method. Format: functional. To be noted: subsp. subtilis str. 168.
For assay [2], the system named is HCT-116. Put plainly: Cytotoxicity against human HCT-116 cells assessed as reduction in cell growth at 12.8 uM measured after 48 hrs by MTS assay. The class given is functional, cell-based.
The subject of assay [3] is Staphylococcus aureus. Briefly: Antibacterial activity against methicillin-resistant Staphylococcus aureus ATCC 43300 assessed as bacterial growth inhibition measured after 16 hrs by serial dilution method. Format: functional.
Assay [4] relates to Staphylococcus aureus. Put plainly: Antibacterial activity against methicillin-sensitive Staphylococcus aureus ATCC 25923 assessed as bacterial growth inhibition measured after 16 hrs by serial dilution method. Format: functional.
In assay [5] the test system is HCT-116. Briefly: Cytotoxicity against human HCT-116 cells assessed as reduction in cell growth at 0.06 to 30 uM measured after 48 hrs by MTS assay. The class given is functional, cell-based. To be noted: dose 0.06-30 µM.

Turning to `O=C1C=C(c2cc(Br)c(O)c(Br)c2)C(O)(Cc2ccc(O)c(Br)c2)O1` (centres undefined), the minimal inhibitory concentration (MIC) in assay [1], in assay [3] and in assay [4] was > 128 µg/mL throughout. For the same molecule, the outcome in assay [2] was Active.

In the case of `CN(C)[C@@H]1C(O)=C(C(N)=O)C(=O)[C@@]2(O)C(O)=C3C(=O)c4c(O)cccc4[C@@](C)(O)[C@H]3C[C@@H]12` [TETRACYCLINE], the minimum inhibitory concentration (MIC) (as a rule, the smallest concentration in the dilution series that meets the test's criterion for growth inhibition) was 2 µg/mL (≈ 4.5 µM) in assay [1], < 0.25 µg/mL in assay [3] and < 0.25 µg/mL in assay [4].

With `O=C1C=C(c2cc(Br)c(O)c(Br)c2)C(O)(Cc2cc(Br)c(O)c(Br)c2)O1` (centres undefined), the minimal inhibitory concentration (MIC) was 32 µg/mL (≈ 52.1 µM) in assay [1], 16 µg/mL (≈ 26.1 µM) in assay [3] and 32 µg/mL (≈ 52.1 µM) in assay [4]. The result in assay [5] was inactive.

For `O=C1C=C(c2cc(Br)c(O)c(Br)c2)/C(=C/c2cc(Br)c(O)c(Br)c2)O1` [RUBROLIDE A], the results for the MIC in assay [1], in assay [3] and in assay [4] were 2 µg/mL (≈ 3.36 µM), 2 µg/mL (≈ 3.36 µM) and 8 µg/mL (≈ 13.4 µM), respectively. In assay [5], the result was inactive.

For the molecule `O=C1OC(O)(Cc2ccc(O)cc2)C(c2cc(Br)c(O)c(Br)c2)=C1Cl` (centres undefined), the minimal inhibitory concentration (MIC) in assay [1], in assay [3] and in assay [4] was 128 µg/mL (≈ 261 µM) in each case. Further, in assay [5], the result was inactive.
